Assay results from PMC9126595, “Identification of 3-(piperazinylmethyl)benzofuran derivatives as novel type II CDK2 inhibitors: design, synthesis, biological evaluation, and in silico insights” (Journal of Enzyme Inhibition and Medicinal Chemistry, 2022).
Where two headings read alike, the source gives them in different places.

Experiments:
[1] = tested on: A-549 lung carcinoma cell line; assay: SRB anti-proliferative assay, A-549; type: cell-based, human; settings: read-out: IC50 A-549
Source text: (§1) The experimental details for the performed biological assays; Sulforhodamine B (SRB) cytotoxicity, CDK2 kinase, Annexin V-FITC apoptosis, and cell cycle assays[86–89] were mentioned in the Supporting Information.
(§2) 1. Anti-proliferative activity assay
(§3) The examined human pancreatic cancer (Panc-1), breast cancer (MCF-7), and lung carcinoma (A549) cell lines have been obtained from American Type Culture Collection (ATCC). The cells were maintained in Dulbecco's modified Eagle's medium (DMEM) supplemented with 10% heat inactivated fetal calf serum (GIBCO), penicillin (100 U/ml) and streptomycin (100 µg/ml) at 37 °C in humidified atmosphere containing 5% CO2. […]
(§4) a 25 cm2 flask in 5 ml of culture medium. The anti-proliferative activity of the tested 3-(piperazinylmethyl)benzofurans (9, 11, 13, 15 and 17) was measured in vitro using the Sulfo-Rhodamine-B stain (SRB) assay. Briefly, cells were plated out in 96-well microtiter plate (0.5X10^4 cells/well) and incubated for 24 h before treatment with the tested hybrids to allow cells to attach to the bottom of the well of the plate. Tested benzofurans were dissolved in DMSO at 1 mg/ml immediately before use and diluted to the appropriate volume just before addition to the cell culture. Different concentrations of tested benzofurans, and Staurosporine were added to the cells (three wells were prepared for each individual dose). Cells were incubated with the hybrids for 48 […]
(§5) After 48 h cells were fixed, washed, and stained for 30 min with 0.4% (w/v) SRB dissolved in 1% acetic acid. Unbound dye was removed by four washes with 1% acetic acid, and attached stain was recovered with Tris-EDTA buffer. Color intensity was measured in an ELISA reader. The relation between percent of surviving fraction and log drug concentration is plotted to get the survival curve for each cell line. […]

[2] = tested on: MCF-7 breast cancer cell line; assay: SRB anti-proliferative assay, MCF-7; type: cell-based, human; settings: read-out: IC50 MCF-7
Source text: as §1, §2, §3, §4, §5

[3] = tested on: Panc-1 pancreatic cancer cell line; assay: SRB anti-proliferative assay, Panc-1; type: cell-based, human; settings: read-out: IC50 Panc-1
Source text: as §1, §2, §3, §4, §5

[4] = tested on: non-tumorigenic human lung fibroblast MRC-5 cell line; assay: Normal cell cytotoxicity, MRC-5; type: cell-based
Description: To test the safety of the newly synthesised compounds and their selectivity towards cancer cells, their cytotoxic activity was tested on non-tumorigenic human lung fibroblast MRC-5 cell line.

CDK2 = molecular target: T1, CDK2 (Homo sapiens, UniProt P24941); assay: CDK2 kinase inhibitory assay (Promega CDK2 Kinase Enzyme System); type: biochemical; settings: mean ± SD of three separate experiments
T1 construct: purchased Promega V2971
Source text: The experimental details for the performed biological assays; Sulforhodamine B (SRB) cytotoxicity, CDK2 kinase, Annexin V-FITC apoptosis, and cell cycle assays[86–89] were mentioned in the Supporting Information. […]
4. CDK Kinase Inhibitory Activity
CDK2 Kinase Enzyme System (catalog No. V2971) (Promega, Milan, Italy), according to the
manufacturer’s instructions. […]

Panc-1 cells [5] = assay: Annexin V-FITC/PI apoptosis assay; type: cell-based, human; settings: Panc-1, IC50 concentration
Description: Anx V flowcytometry assay is featured as a helpful tool to determine whether cells death is due to the physiological apoptosis or to the non-specific necrosis.
3. Annexin V-FITC Apoptosis Assay
Phosphatidylserine externalization was assayed using Annexin V-FITC/PI apoptosis detection kit (BD Biosciences, USA) according to the manufacturer’s instructions. Pancreatic cancer Panc-1 […]
concentration. Briefly, cells were then harvested via trypsinization, and rinsed twice in PBS followed by binding buffer. Moreover, cells were re-suspended in 100 μL of binding buffer with the addition of 1 μL of FITC-Annexin V followed by an incubation period of 30 min at 4 °C. Cells were then rinsed in binding buffer and resuspended in 150 μL of binding buffer with the addition

Panc-1 cells [6] = assay: Cell cycle analysis (PI flow cytometry); type: cell-based, human; settings: Panc-1, IC50 dose, 24 h
Description: as §3
a 25 cm2 flask in 5 ml of culture medium. […]
The concentration required for […]
concentration), and then cells were washed twice with ice-cold phosphate buffered saline (PBS).
Subsequently, the treated cells were collected by centrifugation, fixed in ice-cold 70% (v/v) ethanol, washed with PBS, re-suspended with 100 μg/mL RNase, stained with 40 μg/mL PI, and analyzed by flow cytometry using FACS Calibur (Becton Dickinson, BD, Franklin Lakes, NJ, USA). The cell cycle distributions were calculated using CellQuest software 5.1 (Becton

[7] = SRB, 48 h, mean of 3 separate experiments
[8] = MRC5, normal lung fibroblasts, mean of three separate experiments, read-out: IC50 MRC-5
[9] = Homo sapiens, A549, SRB, 48 h, mean of 3 separate experiments
[10] = Homo sapiens, MCF7, SRB, 48 h, mean of 3 separate experiments
[11] = Homo sapiens, PANC-1, SRB, 48 h, mean of 3 separate experiments

| SMILES | IC50 [4, 8] [µM] | IC50 [1, 9] [µM] | IC50 [2, 10] [µM] | IC50 [3, 11] [µM] | IC50 (CDK2) [µM] | melting point [°C] | also measured |
| --- | --- | --- | --- | --- | --- | --- | --- |
| N.N.[Cl][Pt][Cl] [Cisplatin, reference compound] |  |  |  |  |  |  | IC50 [1, 7]: 6.72 ± 0.37 µM; IC50 [2, 7]: 5.45 ± 0.4 µM; IC50 [3, 7]: 6.98 ± 0.35 µM |
| O=C(NNC(=S)Nc1ccccc1)c1oc2ccccc2c1CN1CCN(c2ccccc2)CC1 [Compound 9a] | 406 ± 21 | 85.5 ± 6.21 | 118 ± 6.02 | 86.9 ± 4.17 | 0.322 ± 0.016 | 198 to 200 |  |
| COc1cccc(NC(=S)NNC(=O)c2oc3ccccc3c2CN2CCN(c3ccccc3)CC2)c1 [Compound 9b] | 289 ± 19 | 80.4 ± 4.87 | 98.5 ± 4.47 | 61.9 ± 3.48 | 0.0849 ± 0.0043 |  |  |
| COc1ccc(NC(=S)NNC(=O)c2oc3ccccc3c2CN2CCN(c3ccccc3)CC2)cc1 [Compound 9c] | 261 ± 20 | 72.2 ± 5.36 | 86.6 ± 5.28 | 103 ± 6.21 | 0.214 ± 0.011 | 182 to 184 |  |
| O=C(NNC(=S)Nc1cccc(F)c1)c1oc2ccccc2c1CN1CCN(c2ccccc2)CC1 [Compound 9d] | 166 ± 14 | 40.4 ± 2.74 | 53.9 ± 3.57 | 27.2 ± 1.87 | 0.0777 ± 0.041 |  |  |
| O=C(NNC(=S)Nc1ccc(F)cc1)c1oc2ccccc2c1CN1CCN(c2ccccc2)CC1 [Compound 9e] | 52 ± 3 | 5.24 ± 0.4 | 5.89 ± 0.43 | 3.29 ± 0.2 | 0.065 ± 0.0033 | 218 to 220 |  |
| O=C(NNC(=S)Nc1cccc(Cl)c1)c1oc2ccccc2c1CN1CCN(c2ccccc2)CC1 [Compound 9f] | 391 ± 25 | 127 ± 7.61 | 127 ± 7.56 | 126 ± 7.06 | 0.119 ± 0.0061 |  |  |
| O=C(NNC(=S)Nc1ccc(Cl)cc1)c1oc2ccccc2c1CN1CCN(c2ccccc2)CC1 [Compound 9g] | 342 ± 30 | 111 ± 6.38 | 121 ± 8.39 | 122 ± 6.34 | 0.0698 ± 0.0036 | 197 to 199 |  |
| CC(=O)c1ccc(NC(=S)NNC(=O)c2oc3ccccc3c2CN2CCN(c3ccccc3)CC2)cc1 [Compound 9i] | 142 ± 11 | 29.2 ± 2.06 | 27.3 ± 2.05 | 19.2 ± 1.27 | 0.0894 ± 0.00462 |  |  |
| O=C(NNC(=O)c1oc2ccccc2c1CN1CCN(c2ccccc2)CC1)Nc1ccccc1 [Compound 11a] |  |  |  |  |  |  | IC50 ([4]; MRC5, read-out: IC50 MRC-5): 178 ± 13 µM; IC50 ([1]; Homo sapiens, A549, 48 h): 49.3 ± 3.27 µM; IC50 ([2]; Homo sapiens, MCF7, 48 h): 55.9 ± 3.18 µM; IC50 ([3]; Homo sapiens, PANC-1, 48 h): 56.8 ± 2.94 µM |
| COc1cccc(NC(=O)NNC(=O)c2oc3ccccc3c2CN2CCN(c3ccccc3)CC2)c1 [Compound 11b] |  |  |  |  |  |  | IC50 ([4]; MRC5, read-out: IC50 MRC-5): 121 ± 10 µM; IC50 ([1]; Homo sapiens, A549, 48 h): 13.8 ± 1.04 µM; IC50 ([2]; Homo sapiens, MCF7, 48 h): 15.2 ± 1.34 µM; IC50 ([3]; Homo sapiens, PANC-1, 48 h): 10.2 ± 0.86 µM |
| COc1ccc(NC(=O)NNC(=O)c2oc3ccccc3c2CN2CCN(c3ccccc3)CC2)cc1 [Compound 11c] |  |  |  |  |  |  | IC50 ([4]; MRC5, read-out: IC50 MRC-5): 246 ± 13 µM; IC50 ([1]; Homo sapiens, A549, 48 h): 57 ± 2.33 µM; IC50 ([2]; Homo sapiens, MCF7, 48 h): 76.9 ± 5.21 µM; IC50 ([3]; Homo sapiens, PANC-1, 48 h): 61.5 ± 4.52 µM |
| O=C(NNC(=O)c1oc2ccccc2c1CN1CCN(c2ccccc2)CC1)Nc1ccc(Cl)c(C(F)(F)F)c1 [Compound 11d] |  |  |  |  |  |  | IC50 ([4]; MRC5, read-out: IC50 MRC-5): 74 ± 5 µM; total apoptotic cells percentage (Panc-1 cells [5]; control 2.41%): 29.93%; early apoptotic phase percentage (Panc-1 cells [5]; lower right quadrant, control 0.59%): 2.64%; late apoptotic phase percentage (Panc-1 cells [5]; upper right quadrant, control 0.32%): 15.87%; IC50 ([1]; Homo sapiens, A549, 48 h): 2.99 ± 0.21 µM; proportion of cells in sub-G1 phase (Panc-1 cells [6]; control 2.36%): 23.04%; proportion of cells in G2/M phase (Panc-1 cells [6]; control 12.17%): 27.52%; cells population in S phase (Panc-1 cells [6]; control 41.90%): 22.61%; cells population in G0/G1 phase (Panc-1 cells [6]; control 43.57%): 26.83%; IC50 ([2]; Homo sapiens, MCF7, 48 h): 5.57 ± 0.47 µM; IC50 ([3]; Homo sapiens, PANC-1, 48 h): 2.22 ± 0.13 µM |
| COc1ccc(NC(=O)NNC(=O)c2oc3ccccc3c2CN2CCN(c3ccccc3)CC2)cn1 [Compound 11e] |  |  |  |  |  |  | IC50 ([4]; MRC5, read-out: IC50 MRC-5): 244 ± 18 µM; IC50 ([2]; Homo sapiens, MCF7, 48 h): 48.7 ± 3.54 µM; IC50 ([3]; Homo sapiens, PANC-1, 48 h): 54.6 ± 4.22 µM |
| O=C(NN=Cc1ccccc1)c1oc2ccccc2c1CN1CCN(c2ccccc2)CC1 [Compound 13a] | > 500 | 109 ± 7.59 | 118 ± 8.39 | 169 ± 9.41 | 0.152 ± 0.0077 |  |  |
| COc1cccc(C=NNC(=O)c2oc3ccccc3c2CN2CCN(c3ccccc3)CC2)c1 [Compound 13b] | 18.1 ± 1.3 | 1.71 ± 0.1 | 2.98 ± 0.18 | 1.04 ± 0.08 | 0.0656 ± 0.00331 | 176 to 178 |  |
| COc1ccc(C=NNC(=O)c2oc3ccccc3c2CN2CCN(c3ccccc3)CC2)cc1 [Compound 13c] | 121 ± 9 | 14.4 ± 1.02 | 13.6 ± 0.94 | 4.47 ± 0.29 | 0.0526 ± 0.0027 | 181 to 182 |  |
| CC(=NNC(=O)c1oc2ccccc2c1CN1CCN(c2ccccc2)CC1)c1ccccc1 [Compound 15a] | 452 ± 28 | 98.4 ± 5.61 | 123 ± 6.82 | 120 ± 5.77 | 0.333 ± 0.017 | 191 to 193 |  |
| COc1ccc(C(C)=NNC(=O)c2oc3ccccc3c2CN2CCN(c3ccccc3)CC2)cc1 [Compound 15b] | 160 ± 10 | 28.5 ± 1.92 | 44.4 ± 2.96 | 25.4 ± 1.7 | 0.127 ± 0.0065 |  |  |
| O=C(NN=C1CCCc2ccccc21)c1oc2ccccc2c1CN1CCN(c2ccccc2)CC1 [Compound 17] | 284 ± 15 | 58.9 ± 1.88 | 82.8 ± 5.43 | 80.4 ± 4.83 | 0.0656 ± 0.0033 |  |  |
